Test results from patent US20100093637A1, “PEPTIDES AND USE THEREOF” (priority 2005, published 2010).

Test system: Human fibroblasts
Assay: Stimulation of collagen synthesis measured by incorporation of tritiated proline in fibroblast collagenic fractions
Format: cell-based
Conditions: 72 hours of treatment
Protocol: The stimulation of collagen synthesis by peptides of the present invention was evaluated by measuring the incorporation of tritiated proline in fibroblasts collagenic fractions. The assay was conducted as follows. Human fibroblasts (obtained from the human biopsy of a person) were seeded in 24-well plates at approximately 40,000 cells per well in 1 ml of culture medium. The culture medium contained DMEM (Invitrogen S.a.r.l., Cergy Pontoise, France) supplemented with 10% Fetal Calf Serum (FCS, Cambrex Bio Science Paris S.a.r.l., Emerainville, France), 1% Glutamax (Invitrogen S.a.r.l.), 4 μg/ml gentamicine (Invitrogen S.a.r.l.), and 2.5 μg/ml Fungizone (Invitrogen S.a.r.l.). Cells were placed at 37° C. under 5% CO2 in a humidified atmosphere for 72 hours.
The culture medium was the removed and replaced with 1 ml of either: (i) incubation medium alone (untreated control); (ii) incubation medium further containing 1 ng/ml TGFb1 (R&D Systems Europe, Lille, France) for use as a stimulated positive control; or (iii) incubation medium further containing one of the tested peptides at a concentration of 1 μg/ml or 10 μg/ml. The incubation medium contained DMEM supplemented with 2% FCS, 1% Glutamax, 4 μg/ml gentamicine, 2.5 μg/ml Fungizone, 50 μg/ml ascorbic acid, 50 μg/ml b-aminoproionitrile, and 3.4 μg/ml a ketoglutarate.
During the last 24 hours of incubation, five μCi of tritiated proline (L-2,3-3H proline, Amersham Biosciences Europe, Saclay, France) was also added to each well. Each condition (untreated control, positive control and tested peptide) was performed in triplicate. In order to normalize the results, the same experiment was performed in parallel, except that tritiated proline was omitted. At the end of the treatment, cells were counted with a coulter counter. After 72 hours of treatment, incubation medium (supernatants) were collected in 2 ml microtubes and frozen at −20° C.
In order to perform the collagen extraction, 1 ml of cold 20% TCA (Sigma-Aldrich, Lyon, France) was added to 1 ml of supernatant. The samples were then vortexed, incubated for 5 minutes (min) at −20° C., and let stand on ice for 30 min. The samples were then centrifuged (2300 g, 5 min, 4° C.). The supernatants were then eliminated, and the pellets were rinsed with 1 ml of cold 5% TCA, vortexed, and centrifuged (2300 g, 5 min, 4° C.). The pellets were then rinsed twice with 5% TCA following the same procedure as described above. The pellets were then dissolved in 0.3 ml of 0.05 N NaOH and neutralized with 0.1N HCl to reach pH 6-8. Then, 0.2 ml of protein solution was incubated for 2 hours at 37° C. in 2×Tris HCl Buffer containing 10 units of collagenase activity (Clostridium hystolyticum Type III collagenase, Sigma-Aldrich, Lyon, France).
The enzymatic reaction was then stopped by precipitation with 500 μl of 15% TCA and 500 μl of 0.75% tannic acid. Samples were then incubated 30 min on ice. The precipitates were then centrifuged (2300 g, 5 min, 4° C.). The supernatants containing collagen fractions were collected, and scintillation liquid (Ecolume ICN) was added to each sample (5 ml to 100 μl sample). Then, radioactivity was measured in a β-scintillation counter.
The rate of collagen synthesis was calculated as follows: Synthesis rate=(number of dpm/cell number)*1000
The percentage of stimulation was calculated as follows: % of stimulation=[(synthesis rate in sample-synthesis rate in control)/(synthesis rate in control)]*100.

[1] = peptide at 1 ug/ml in incubation medium
[2] = peptide at 10 ug/ml in incubation medium

Substance | Percent stimulation vs. control (1 ng/ml in incubation medium, positive control) [%] | Percent stimulation vs. control (1 ng/ml in incubation medium, positive control, listed as TGFb) [%] | Percent stimulation vs. control [1] [%] | Percent stimulation vs. control (peptide at 1 ug/ml in incubation medium, listed as TRNDKL) [%] | Percent stimulation vs. control [2] [%] | Percent stimulation vs. control (peptide at 10 ug/ml in incubation medium, listed as TRNDKL) [%] | Percent stimulation vs. control (peptide at 1 ug/ml in incubation medium, listed as VFTRN) [%] | Percent stimulation vs. control (peptide at 10 ug/ml in incubation medium, listed as VFTRN) [%]
TGF b: potent stimulator of collagen synthesis in dermal fibroblast used as positive control [reference compound] | 45.7 | 45 | – | – | – | – | – | –
H2-Thr-Arg-Asn-Asp-Lys-Leu-OH (H-TRNDKL-OH) [Peptide 2] | – | – | 23.5 | 25 | 42.6 | 42 | – | –
H2-Val-Arg-Phe-Thr-Arg-Asn-OH (H-VRFTRN-OH) [Peptide 1] | – | – | 14.8 | – | 43.1 | – | 15 | 43
